This is an account of results in patent publication US20240351986A1, “UREA COMPOUND CONTAINING 2-HETEROAROMATIC RING SUBSTITUTION, PREPARATION METHOD THEREFOR AND USE THEREOF” (SHANGHAI INSTITUTE OF MATERIA MEDICA, CHINESE ACADEMY OF …, priority 2021, published 2024).

The target in the test is T1, Recombinant human CDK9/cyclin T1 (Homo sapiens, UniProt P50750).
T1 construct: purchased Carna bioscience 04-110
Briefly: CDK9 enzyme inhibitory activity (ADP-Glo kinase assay). In kind it is biochemical. Particulars: CDK9 enzyme activity, average of two independent repeats; for inhibition at 0.01 µM: compound 10 nM, read-out: Inhibition rate at different concentrations (%) 10 nM; for inhibition at 0.1 µM: compound 100 nM, read-out: Inhibition rate at different concentrations (%) 100 nM. The method, then: Experimental method: Recombinant human CDK9/cyclin T1 (Carna bioscience, Cat #04-110) was diluted with dilution buffer (20 mM Tris HCl (pH 7.5), 0.02% Triton X-100, 0.01% BSA, 2 mM DTT, 0.5 mM Na3VO4, 10% Glycerol) to […], the substrates CDK7/9 tide (ThermoFisher, Cat #PV5090) and ATP (sigmaaldrich, Cat #A1852) were diluted with assay buffer (25 mM Tris HCl (pH7.5), 10 mM MgCl2, 0.5 mM EGTA (pH 8), 0.5 mM Na3VO4, 5 mMb-glycerol phosphate, 0.1% Triton X-100, 2.5 mM DTT) to final concentrations of 100 μM and […] respectively, aliquot and set aside. 2 μl of diluted recombinant human CDK9/cyclin T1, 1 μl of test compound, and 2 μl of diluted substrate CDK7/9 tide containing ATP were added to the 384-well plate. […] The positive control was the well in which enzyme and substrate were co-incubated, and the negative control was the well in which dilution buffer and substrate were co-incubated. The inhibition rate was calculated according to the following formula.

T1 sequence (P50750 whole entry): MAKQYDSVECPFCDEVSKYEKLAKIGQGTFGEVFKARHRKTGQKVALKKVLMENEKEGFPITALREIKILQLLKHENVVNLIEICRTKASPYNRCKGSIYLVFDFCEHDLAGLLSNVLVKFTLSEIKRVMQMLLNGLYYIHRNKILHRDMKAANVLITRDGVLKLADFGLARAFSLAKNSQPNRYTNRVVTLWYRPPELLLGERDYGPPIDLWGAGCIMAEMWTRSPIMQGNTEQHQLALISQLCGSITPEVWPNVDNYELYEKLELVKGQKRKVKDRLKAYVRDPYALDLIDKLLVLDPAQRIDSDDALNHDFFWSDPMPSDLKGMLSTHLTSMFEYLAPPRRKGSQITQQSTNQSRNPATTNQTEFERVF
T1 sequence (O60563 whole entry partner): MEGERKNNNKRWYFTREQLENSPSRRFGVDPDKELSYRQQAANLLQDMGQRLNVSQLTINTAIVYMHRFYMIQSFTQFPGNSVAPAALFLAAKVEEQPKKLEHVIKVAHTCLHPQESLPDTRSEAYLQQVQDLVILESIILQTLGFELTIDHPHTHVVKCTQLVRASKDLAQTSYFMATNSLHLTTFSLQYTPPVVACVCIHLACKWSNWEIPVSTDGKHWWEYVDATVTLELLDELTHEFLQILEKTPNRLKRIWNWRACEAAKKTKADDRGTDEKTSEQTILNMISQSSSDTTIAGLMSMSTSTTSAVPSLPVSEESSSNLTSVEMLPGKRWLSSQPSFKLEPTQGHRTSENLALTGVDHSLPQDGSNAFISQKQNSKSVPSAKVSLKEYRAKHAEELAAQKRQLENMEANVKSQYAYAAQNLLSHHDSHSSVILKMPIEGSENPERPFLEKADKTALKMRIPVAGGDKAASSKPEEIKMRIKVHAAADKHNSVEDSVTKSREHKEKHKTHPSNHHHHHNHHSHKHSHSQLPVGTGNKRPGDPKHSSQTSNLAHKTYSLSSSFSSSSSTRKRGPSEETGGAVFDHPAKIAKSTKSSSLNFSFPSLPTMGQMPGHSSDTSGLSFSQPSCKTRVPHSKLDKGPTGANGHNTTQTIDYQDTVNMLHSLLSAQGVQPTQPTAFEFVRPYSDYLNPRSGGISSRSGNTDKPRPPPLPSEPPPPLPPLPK

On to `CC1(C)Cc2c(-c3cc(NC(=O)NC4CCC(NC(=O)C5COC5)CC4)ncc3Cl)cnn2C1` (stereo not drawn) [Example 50, N-((1r,4r)-4-(3-(5-chloro-4-(5,5-dimethyl-5,6-dihydro-4H-pyrrolo[1,2-b]pyrazol-3-yl)pyridin-2-yl)ureido)cyclohexyl) oxetane-3-carboxamide], for which the inhibition at 0.01 µM is 53.2% and the inhibition at 0.1 µM was 95.1%.

Turning to `CN(C)C1CCC(NC(=O)Nc2cc(-c3cnn4c3CC(C)(C)C4)c(Cl)cn2)CC1` (stereo not drawn) [Example 89, 1-(5-chloro-4-(5,5-dimethyl-5,6-dihydro-4H-pyrrolo[1,2-b]pyrazol-3-yl)pyridin-2-yl)-3-((1r,4r)-4-(dimethylamino)cyclohexyl)urea], the inhibition at 0.01 µM is 63.7% and the inhibition at 0.1 µM came to 92.7%.

As to `COc1cc(F)ccc1-c1cc(NC(=O)NC2CCC(NC3CC3)CC2)ncc1Cl` (stereo not drawn) [Example 24, 1-(5-chloro-4-(4-fluoro-2-methoxyphenyl)pyridin-2-yl)-3-((1r,4r)-4-(cyclopropylamino)cyclohexyl)urea], the inhibition at 0.01 µM stood at 37.8% and the inhibition at 0.1 µM was determined as 73.1%.

In the case of `COc1cc(F)ccc1-c1ccnc(NC(=S)NC2CCC(N)CC2)c1` (stereo not drawn) [Example 38, 1-((1r,4r)-4-aminocyclohexyl)-3-(4-(4-fluoro-2-methoxyphenyl)pyridin-2-yl)thiourea], the inhibition at 0.01 µM was found to be 51% and the inhibition at 0.1 µM worked out at 27%.

In the case of `CC(=O)NC1CCC(NC(=O)Nc2cc(-c3cnn4c3COCC4)c(Cl)cn2)CC1` (stereo not drawn) [Example 82, N-((1r,4r)-4-(3-(5-chloro-4-(6,7-dihydro-4H-pyrazolo[5,1-c][1,4]oxazine-3-yl)pyridin-2-yl)ureido)cyclohexyl)acetamide], the inhibition at 0.01 µM was 38% and the inhibition at 0.1 µM stood at 79.2%.

With `COCC(C)NC1CCC(NC(=O)Nc2cc(-c3ccc(F)cc3OC)c(Cl)cn2)CC1` (stereo not drawn) [Example 21, 1-(5-chloro-4-(4-fluoro-2-methoxyphenyl)pyridin-2-yl)-3-((1r,4r)-4-((1-methoxypropan-2-yl)amino)cyclohexyl)urea], the inhibition at 0.01 µM turned out to be 45.2% and the inhibition at 0.1 µM came out at 91%.

In the case of `COCCNC1CCC(NC(=O)Nc2cc(-c3ccc(F)cc3OC)c(Cl)cn2)CC1` (stereo not drawn) [Example 19, 1-(5-chloro-4-(4-fluoro-2-methoxyphenyl)pyridin-2-yl)-3-((1r,4r)-4-((2-methoxyethyl)amino)cyclohexyl)urea], the inhibition at 0.01 µM stood at 57.1% and the inhibition at 0.1 µM was determined as 87.4%.

With `CC(=O)NC1CCC(NC(=O)Nc2cc(-c3cnn4c3CC(C)(C)C4)c(F)cn2)CC1` (stereo not drawn) [Example 51, N-((1r,4r)-4-(3-(4-(5,5-dimethyl-5,6-dihydro-4H-pyrrolo[1,2-b]pyrazol-3-yl)-5-fluoropyridin-2-yl)ureido)cyclohexyl)acetamide], the inhibition at 0.01 µM came out at 60.2% and the inhibition at 0.1 µM was found to be 92.8%.

Turning to `COCC(C)NC1CCC(NC(=O)Nc2cc(-c3cnn4c3CC(C)(C)C4)c(Cl)cn2)CC1` (stereo not drawn) [Example 55, 1-(5-chloro-4-(5,5-dimethyl-5,6-dihydro-4H-pyrrolo[1,2-b]pyrazol-3-yl)pyridin-2-yl)-3-((1r,4r)-4-((1-methoxypropan-2-yl)amino)cyclohexyl)urea], the inhibition at 0.01 µM amounted to 61.3% and the inhibition at 0.1 µM was 93.1%.

For the compound `COc1cc(F)ccc1-c1ccnc(NC(=O)NC2CCC(NC(=O)OC(C)(C)C)CC2)c1` (stereo not drawn) [Example 1, tert-butyl((1r,4r)-4-(3-(4-(4-fluoro-2-methoxyphenyl)pyridin-2-yl)ureido)cyclohexyl) carbamate], the inhibition at 0.01 µM came to 48.5% and the inhibition at 0.1 µM was determined as 97.3%.

Turning to `CC(=O)NC1CCC(NC(=O)Nc2cc(-c3cnn4c3CC(C)(C)C4)c(C3CC3)cn2)CC1` (stereo not drawn) [Example 53, N-((1r,4r)-4-(3-(4-(5,5-dimethyl-5,6-dihydro-4H-pyrrolo[1,2-b]pyrazol-3-yl)-5-cyclopropylpyridin-2-yl)ureido)cyclohexyl)acetamide], the inhibition at 0.01 µM came to 40.3% and the inhibition at 0.1 µM came out at 59.8%.

Turning to `COCCNC1CCC(NC(=O)Nc2cc(-c3cnn4c3CC(C)(C)C4)ccn2)CC1` (stereo not drawn) [Example 17, 1-(4-(5,5-dimethyl-5,6-dihydro-4H-pyrrolo[1,2-b]pyrazol-3-yl)pyridin-2-yl)-3-((1r,4r)-4-((2-methoxyethyl)amino)cyclohexyl)urea], the inhibition at 0.01 µM worked out at 68.2% and the inhibition at 0.1 µM stood at 90.2%.

Regarding `COc1cc(F)ccc1-c1ccnc(NC(=O)NC2CCC(NC(C)=O)CC2)c1` (stereo not drawn) [Example 4, N-((1r,4r)-4-(3-(4-(4-fluoro-2-methoxyphenyl)pyridin-2-yl)ureido)cyclohexyl)acetamide], the inhibition at 0.01 µM turned out to be 45.1% and the inhibition at 0.1 µM amounted to 93.2%.

For the compound `CC1(C)Cc2c(-c3cc(NC(=O)NC4CCC(NCCOC(F)(F)F)CC4)ncc3Cl)cnn2C1` (stereo not drawn) [Example 57], the inhibition at 0.01 µM turned out to be 55% and the inhibition at 0.1 µM turned out to be 86.5%.

With `COc1cc(F)ccc1-c1ccnc(NC(=O)Nc2ccc(F)nc2)c1` [Example 33, 1-(4-(4-fluoro-2-methoxyphenyl)pyridin-2-yl)-3(6-fluoropyridin-3-yl)urea], the inhibition at 0.01 µM turned out to be 11.9% and the inhibition at 0.1 µM is 81%.

In the case of `COCCNC1CCC(NC(=O)Nc2cc(-c3cnn4c3CC(C)(C)C4)c(Cl)cn2)CC1` (stereo not drawn) [Example 66, 1-(5-chloro-4-(5,5-dimethyl-5,6-dihydro-4H-pyrrolo[1,2-b]pyrazol-3-yl)pyridin-2-yl)-3-((1s,4s)-4-((2-methoxyethyl)amino)cyclohexyl)urea], the inhibition at 0.01 µM was 57% and the inhibition at 0.1 µM is 69%.

Consider `COc1cc(F)ccc1-c1ccnc(NC(=O)NC2CCCNCC2)c1` (stereo not drawn) [Example 37, 1-(azepan-4-yl)-3-(4-(4-fluoro-2-methoxyphenyl)pyridin-2-yl)urea], for which the inhibition at 0.01 µM came out at 10% and the inhibition at 0.1 µM was 60%.

`COc1cc(F)ccc1-c1cc(NC(=O)NC2CCC(NC(C)=O)CC2)ncc1C` (stereo not drawn) [Example 31, N-((1r,4r)-4-(3-(5-methyl-4-(4-fluoro-2-methoxyphenyl)pyridin-2-yl)ureido)cyclohexyl)acetamide]: the inhibition at 0.01 µM stood at 20.7% and the inhibition at 0.1 µM came out at 51.3%.

Regarding `CC1(C)Cc2c(-c3cc(NC(=O)NCCCNC(=O)OC(C)(C)C)ncc3Cl)cnn2C1` [Example 71, tert-butyl (3-(3-(5-chloro-4-(5,5-dimethyl-5,6-dihydro-4H-pyrrolo[1,2-b]pyrazol-3-)pyridin-2-yl)ureido)propyl)carbamate], the inhibition at 0.01 µM was found to be 34% and the inhibition at 0.1 µM was determined as 64%.

As to `CC1(C)Cc2c(-c3cc(NC(=O)NC4CCC(NC5COC5)CC4)ncc3Cl)cnn2C1` (stereo not drawn) [Example 63], the inhibition at 0.01 µM turned out to be 40.2% and the inhibition at 0.1 µM was 69.3%.

As to `COCCNC1CCC(NC(=O)Nc2cc(-c3cnn(C)c3)ccn2)CC1` (stereo not drawn) [Example 14, 1-((1r,4r)-4-((2-methoxyethyl)amino)cyclohexyl)-3-(4-(1-methyl-1H-pyrazol-4-yl)pyridine-2-yl) urea], the inhibition at 0.01 µM is -7.6% and the inhibition at 0.1 µM was 72.3%.

Turning to `CCNC1CCCC(NC(=O)Nc2cc(-c3cnn4c3CC(C)(C)C4)c(Cl)cn2)C1` (stereo not drawn) [Example 78, 1-(5-chloro-4-(5,5-dimethyl-5,6-dihydro-4H-pyrrolo[1,2-b]pyrazol-3-yl)pyridin-2-yl)-3-(3-(ethylamino)cyclohexyl)urea], the inhibition at 0.01 µM was 68% and the inhibition at 0.1 µM was determined as 80%.

With `NC1CCC(NC(=O)Nc2cc(-c3ccc(F)cc3OC(F)(F)F)ccn2)CC1` (stereo not drawn) [Example 12, 1-((1r,4r)-4-aminocyclohexyl)-3-(4-(4-fluoro-2-trifluoromethoxyphenyl)pyridin-2-yl) urea], the inhibition at 0.01 µM came out at 19.2% and the inhibition at 0.1 µM was 69.1%.

For `[2H]C([2H])([2H])OCCNC1CCC(NC(=O)Nc2cc(-c3cnn4c3CC(C)(C)C4)c(Cl)cn2)CC1` (stereo not drawn) [Example 58, 1-(5-chloro-4-(5,5-dimethyl-5,6-dihydro-4H-pyrrolo[1,2-b]pyrazol-3-yl)pyridin-2-yl)-3-((1r,4r)-4-((2-(methoxy-d3)ethyl)amino)cyclohexyl)urea], the inhibition at 0.01 µM was 65.1% and the inhibition at 0.1 µM is 98.2%.

On to `COc1cc(-c2ccnc(NC(=O)NC3CCC(N)CC3)c2)c(F)cc1F` (stereo not drawn) [Example 7, 1-((1r,4r)-4-aminocyclohexyl)-3-(4-(2,4-difluoro-5-methoxyphenyl)pyridine-2-yl)urea], for which the inhibition at 0.01 µM was found to be 34.3% and the inhibition at 0.1 µM is 81.1%.

In the case of `NC1CCC(NC(=O)Nc2cc(-c3ccc(F)c4ccoc34)ccn2)CC1` (stereo not drawn) [Example 8, 1-((1r, 4r)-4-aminocyclohexyl)-3-(4-(4-fluoro-benzofuran-7-yl)pyridin-2-yl) urea], the inhibition at 0.01 µM amounted to 23.1% and the inhibition at 0.1 µM amounted to 61.3%.

With `COc1cc(F)ccc1-c1ccnc(NC(=O)NC2CC(N)C2)c1` (stereo not drawn) [Example 35, 1-((1r,3r)-3-aminocyclobutyl)-3-(4-(4-fluoro-2-methoxyphenyl)pyridin-2-yl)urea], the inhibition at 0.01 µM is 30% and the inhibition at 0.1 µM was found to be 62.7%.
